Measurements published in patent publication US12473295B2, “Substituted straight chain spiro derivatives” (Janssen Pharmaceutica NV, priority 2019, dated 2025).
Where a name gives a salt, the structure may show the parent alone. Read-outs that look alike come from different tables or passages of the source.

What was measured:
OCI-AML3 cells = test: Proliferation assay (spheroid growth, 8 days), OCI-AML3; assay type: cell-based, human; settings: OCI-AML3, 8 days
Procedure, shortened: (§1)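 Cells were seeded at 200 (MOLM14, OCI-AML3) or 300 (KO-52) per well in ultra-low attachment round-bottom plates with compounds at several concentrations, 0.3% DMSO, and grown 8 days at 37° C. Spheroid confluence was imaged on day 8; IC50 came from a variable-slope fit normalized to DMSO and high-dose reference compound.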

KO-52 cells = test: Proliferation assay (spheroid growth, 8 days), KO-52 control cell line; assay type: cell-based, human; settings: read-out: spheroid assay_OneTime KO-52 IC50
Procedure, shortened: as §1

MEIS1 mRNA = MEIS1 mRNA expression assay (Quantigene Singleplex) in MOLM14 cells; assay type: cell-based, human; settings: 48 hours incubation;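 note: MEIS1 transcript levels read by probe hybridization and normalized to RPL28 mRNA, with IC50 fitted to fold changes across a rising compound concentration series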
MOLM14 cells = test: Proliferation assay (spheroid growth, 8 days), MOLM14; assay type: cell-based, human; settings: MOLM14, 8 days, read-out: spheroid assay_OneTime MOLM14 IC50;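 note: spheroid size read as confluence by live-cell imaging, compounds added at a range of concentrations with 0.3% DMSO, DMSO-treated wells = 0%, highest reference dose = low control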
[1] = molecular target: menin/MLL (terbium chelate-labeled menin, FITC-MBM1 peptide) (Homo sapiens (Human), UniProt O00255); test: Menin/MLL homogenous time-resolved fluorescence (HTRF) assay; assay type: binding;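 note: IC50 from percent inhibition of HTRF signal, normalized between wells without competitor and wells with a saturating competitor that displaces FITC-MBM1 from His-tagged menin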
[2] = HTRF-30 min incubation IC50, 30 min incubation

Sequence of menin/MLL (terbium chelate-labeled menin, FITC-MBM1 peptide) (O00255 other isoform, or with tags, fused parts or gaps): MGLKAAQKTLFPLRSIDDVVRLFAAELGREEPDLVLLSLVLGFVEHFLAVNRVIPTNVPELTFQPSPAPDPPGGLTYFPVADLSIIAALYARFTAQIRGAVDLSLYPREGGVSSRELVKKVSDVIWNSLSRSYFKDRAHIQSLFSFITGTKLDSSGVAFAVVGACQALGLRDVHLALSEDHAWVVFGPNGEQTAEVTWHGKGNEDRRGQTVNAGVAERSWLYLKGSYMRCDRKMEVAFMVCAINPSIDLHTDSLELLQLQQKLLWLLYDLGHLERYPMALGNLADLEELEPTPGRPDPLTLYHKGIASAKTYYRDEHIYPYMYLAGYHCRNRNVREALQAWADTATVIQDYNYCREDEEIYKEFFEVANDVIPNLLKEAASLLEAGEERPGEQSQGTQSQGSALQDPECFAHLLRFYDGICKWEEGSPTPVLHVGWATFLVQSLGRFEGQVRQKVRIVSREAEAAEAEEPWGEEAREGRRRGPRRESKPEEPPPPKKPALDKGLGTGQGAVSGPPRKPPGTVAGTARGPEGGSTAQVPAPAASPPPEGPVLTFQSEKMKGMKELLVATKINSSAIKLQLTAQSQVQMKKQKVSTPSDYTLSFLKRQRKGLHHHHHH

| SMILES | IC50 (OCI-AML3 cells; Homo sapiens, OCI-AML-3, […]) [nM] | IC50 (KO-52 cells; Homo sapiens, […]) [nM] | IC50 (MEIS1 mRNA; Homo sapiens, MOLM-14, 48 h) [nM] | IC50 (MOLM14 cells; Homo sapiens, MOLM-14, […]) [nM] | IC50 [1, 2] [nM] | IC50 (OCI-AML3 cells) [nM] | IC50 (KO-52 cells) [nM] | IC50 (MEIS1 mRNA) [nM] | IC50 (MOLM14 cells) [nM] | IC50 ([1]; read-out: HTRF-30 min incubation IC50, 30 min incubation) [nM] |
| --- | --- | --- | --- | --- | --- | --- | --- | --- | --- | --- |
| CCN(C(=O)c1cc(F)ccc1Oc1nncnc1N1CCC2(C1)CN([C@H](CCNCCCOC)C(C)C)C2)C(C)C (single isomer, unassigned) [Compound 271, (*R)—N-ethyl-5-fluoro-N-isopropyl-2-((5-(2-(1-((3-methoxypropyl)amino)-4-methylpentan-3-yl)-2,6-diazaspiro[3.4]octan-6-)-1,2,4-triazin-6-yl)oxy)benzamide] | 160 | > 15000 | 100 | 65 | 0.27 | – | – | – | – | – |
| CCN(C(=O)c1cc(F)ccc1Oc1nncnc1N1CCC2(C1)CN([C@H](CCCN(C)C(C)C)C(C)C)C2)C(C)C (single isomer, unassigned) [Compound 122, (*R)—N-ethyl-5-fluoro-N-isopropyl-2-((5-(2-(6-(isopropyl(methyl)amino)-2-methylhexan-3-yl)-2,6-diazaspiro[3.4]octan-6-yl)-1,2,4-triazin-6-yl)oxy)benzamide fumarate] | 150 | > 15000 | 34 | 21 | 0.065 | – | – | – | – | – |
| CCCN(C)CCC[C@@H](C(C)C)N1CC2(CCN(c3ncnnc3Oc3ccc(F)cc3C(=O)N(CC)C(C)C)C2)C1 (single isomer, unassigned) [Compound 128, (*S)—N-ethyl-5-fluoro-N-isopropyl-2-((5-(2-(2-methyl-6-(methyl(propyl)amino)hexan-3-yl)-2,6-diazaspiro[3.4]octan-6-yl)-1,2,4-triazin-6-yl)oxy)benzamide fumarate] | 1990 | 11400 | ~680 | 630 | 1.64 | – | – | – | – | – |
| CCN(C(=O)c1cc(F)ccc1Oc1nncnc1N1CCC2(C1)CN([C@H](C[C@H](O)CN(C)CCOC)C(C)C)C2)C(C)C (single isomer, unassigned) [Compound 352, N-ethyl-5-fluoro-2-((5-(2-((3*R,5S)-5-hydroxy-6-((2-methoxyethyl)(methyl)amino)-2-methylhexan-3-yl)-2,6-diazaspiro[3.4]octan-6-yl)-1,2,4-triazin-6-yl)oxy)-N-isopropylbenzamide fumarate] | 150 | > 15000 | 130 | 18 | 0.077 | – | – | – | – | – |
| CCN(C(=O)c1cc(F)ccc1Oc1nncnc1N1CCC2(C1)CN([C@H](CCCN(C)CC(C)C(=O)N(C)C)C(C)C)C2)C(C)C (stereo partly drawn) [Compound 181, 2-((5-(2-((3R)-6-((3-(dimethylamino)-2-methyl-3-oxopropyl)(methyl)amino)-2-methylhexan-3-yl)-2,6-diazaspiro[3.4]octan-6-yl)-1,2,4-triazin-6-yl)oxy)-N-ethyl-5-fluoro-N-isopropylbenzamide fumarate] | 44 | 14000 | 17 | 23 | 0.079 | – | – | – | – | – |
| CCN(C(=O)c1cc(F)ccc1Oc1nncnc1N1CCC2(C1)CN([C@H](CCCN(C)[C@@H](CO)COC)C(C)C)C2)C(C)C [Compound 167, N-ethyl-5-fluoro-2-((5-(2-((R)-6-(((S)-1-hydroxy-3-methoxypropan-2-yl)(methyl)amino)-2-methylhexan-3-yl)-2,6-diazaspiro[3.4]octan-6-yl)-1,2,4-triazin-6-yl)oxy)-N-isopropylbenzamide fumarate] | 65 | > 15000 | 18 | 17 | 0.16 | – | – | – | – | – |
| CCN(C(=O)c1cc(F)ccc1Oc1nnccc1N1CCC2(C1)CN([C@@H](CCCN(C)C)C(C)C)C2)C(C)C (single isomer, unassigned) [Compound 78, (*S)-2-((4-(2-(6-(dimethylamino)-2-methylhexan-3-yl)-2,6-diazaspiro[3.4]octan-6-yl)pyridazin-3-yl)oxy)-N-ethyl-5-fluoro-N-isopropylbenzamide] | – | – | – | – | – | 12200 | > 15000 | > 1000 | > 940 | 3.69 |
| CCN(C(=O)c1cc(F)ccc1Oc1nncnc1N1CCC2(C1)CN([C@H](CCCN(C)C[C@H](C)C(=O)N(C)C)C(C)C)C2)C(C)C (single isomer, unassigned) [Compound 189, 2-((5-(2-((R)-6-(((*S)-3-(dimethylamino)-2-methyl-3-oxopropyl)(methyl)amino)-2-methylhexan-3-yl)-2,6-diazaspiro[3.4]octan-6-yl)-1,2,4-triazin-6-yl)oxy)-N-ethyl-5-fluoro-N-isopropylbenzamide fumarate] | 190 | > 15000 | 19 | 30 | 0.22 | – | – | – | – | – |
| CC(C)C(CCCN(C)C)N1CC2(CCN(c3ccnnc3Oc3ccc(F)cc3C(=O)N(C(C)C)C(C)C)C2)C1 (centres unmarked) [Compound 74, 2-((4-(2-(6-(dimethylamino)-2-methylhexan-3-yl)-2,6-diazaspiro[3.4]octan-6-yl)pyridazin-3-yl)oxy)-5-fluoro-N,N-diisopropylbenzamide] | 1290 | 10600 | 260 | 140 | 0.51 | – | – | – | – | – |
| CC(C)[C@@H](CCCN(C)CCC(=O)N(C)C)N1CC2(CCN(c3ncnnc3Oc3ccc(F)cc3C(=O)N(C(C)C)C(C)C)C2)C1 (single isomer, unassigned) [Compound 145, (*R)-2-((5-(2-(6-((3-(dimethylamino)-3-oxopropyl)(methyl)amino)-2-methylhexan-3-yl)-2,6-diazaspiro[3.4]octan-6-yl)-1,2,4-triazin-6-yl)oxy)-5-fluoro-N,N-diisopropylbenzamide fumarate] | 110 | > 15000 | 21 | 14 | 0.07 | – | – | – | – | – |
| CCN(C(=O)c1cc(F)ccc1Oc1nncnc1N1CCC2(C1)CN(C(CC(C)(O)CN(C)CCOC)C(C)C)C2)C(C)C (centres unmarked) [Compound 382, N-ethyl-5-fluoro-2-((5-(2-(5-hydroxy-6-((2-methoxyethyl)(methyl)amino)-2,5-dimethylhexan-3-yl)-2,6-diazaspiro[3.4]octan-6-yl)-1,2,4-triazin-6-yl)oxy)-N-isopropylbenzamide fumarate] | 400 | 11800 | 150 | 140 | 0.41 | – | – | – | – | – |
| CCN(C(=O)c1cc(F)ccc1Oc1nncnc1N1CCC2(C1)CN([C@@H](CCCN(C)C(C)C)C(C)C)C2)C(C)C (single isomer, unassigned) [Compound 123, (*S)—N-ethyl-5-fluoro-N-isopropyl-2-((5-(2-(6-(isopropyl(methyl)amino)-2-methylhexan-3-yl)-2,6-diazaspiro[3.4]octan-6-yl)-1,2,4-triazin-6-yl)oxy)benzamide fumarate] | 3550 | > 15000 | > 1000 | > 940 | 3.98 | – | – | – | – | – |
| CCN(C(=O)c1cc(F)ccc1Oc1nncnc1N1CCC2(C1)CN([C@H](CCCN[C@H](CO)COC)C(C)C)C2)C(C)C [Compound 162, N-ethyl-5-fluoro-2-((5-(2-((R)-6-(((R)-1-hydroxy-3-methoxypropan-2-yl)amino)-2-methylhexan-3-yl)-2,6-diazaspiro[3.4]octan-6-yl)-1,2,4-triazin-6-yl)oxy)-N-isopropylbenzamide] | 26 | > 15000 | ~19 | 13 | 0.096 | – | – | – | – | – |
